Experimental data published in BindingDB's records for doi:10.1021/jm801343r (University of Washington At Seattle, 2009).
pIC50: −log10 of the molar value.

What was measured:
Assay in all cases: DHODH Inhibition Assay
[1] = target: T1, Dihydroorotate dehydrogenase (quinone), mitochondrial [100-517] (Plasmodium berghei (strain Anka), UniProt A0A509AEH5)
T1 construct: 100-517
T1 sequence (A0A509AEH5 whole entry): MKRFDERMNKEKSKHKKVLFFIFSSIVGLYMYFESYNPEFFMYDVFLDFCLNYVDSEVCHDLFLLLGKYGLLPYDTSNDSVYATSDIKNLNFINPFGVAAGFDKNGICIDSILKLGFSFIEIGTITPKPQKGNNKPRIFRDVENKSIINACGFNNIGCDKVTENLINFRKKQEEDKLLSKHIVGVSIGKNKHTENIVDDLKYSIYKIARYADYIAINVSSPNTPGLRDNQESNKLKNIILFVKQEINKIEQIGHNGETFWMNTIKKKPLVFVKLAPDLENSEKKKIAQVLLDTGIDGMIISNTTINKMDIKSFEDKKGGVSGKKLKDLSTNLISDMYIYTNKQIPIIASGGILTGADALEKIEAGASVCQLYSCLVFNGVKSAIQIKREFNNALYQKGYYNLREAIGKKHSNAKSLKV
Description: (§1) The assays were carried out by using a colorimetric DCIP method, which uses the colorimetric reagent 2, 6-dichlorophenolindophenol as the final electron acceptor. DCIP reduction is stoichiometrically equivalent to oxidation of dihydroorotate. Changes in absorbance were quantified on a plate reader and data were analyzed to measure the reduction of DCIP as a decrease in absorbance at 600 nm.

[2] = target: T2, Dihydroorotate dehydrogenase (quinone), mitochondrial (Plasmodium falciparum (isolate 3D7), UniProt Q08210)
T2 sequence (Q08210 whole entry): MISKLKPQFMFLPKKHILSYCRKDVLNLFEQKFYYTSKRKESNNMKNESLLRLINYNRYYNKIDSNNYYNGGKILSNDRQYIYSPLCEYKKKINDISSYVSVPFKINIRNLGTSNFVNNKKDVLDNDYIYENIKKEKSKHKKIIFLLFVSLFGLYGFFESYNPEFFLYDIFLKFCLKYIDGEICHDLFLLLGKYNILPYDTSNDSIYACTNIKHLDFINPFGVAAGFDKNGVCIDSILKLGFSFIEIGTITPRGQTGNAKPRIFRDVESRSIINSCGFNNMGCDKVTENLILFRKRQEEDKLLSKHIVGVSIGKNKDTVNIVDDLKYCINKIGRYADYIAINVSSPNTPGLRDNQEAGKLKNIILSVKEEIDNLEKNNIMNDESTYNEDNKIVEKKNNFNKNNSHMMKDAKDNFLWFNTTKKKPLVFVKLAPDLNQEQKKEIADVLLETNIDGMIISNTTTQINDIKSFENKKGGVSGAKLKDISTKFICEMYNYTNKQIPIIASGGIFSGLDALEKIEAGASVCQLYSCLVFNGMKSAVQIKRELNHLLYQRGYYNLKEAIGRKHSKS
Description: as §1

[3] = target: T3, Dihydroorotate dehydrogenase (quinone), mitochondrial [30-395] (Homo sapiens, UniProt Q02127)
T3 construct: 30-395
Description: as §1

T3 sequence (Q02127 30-395): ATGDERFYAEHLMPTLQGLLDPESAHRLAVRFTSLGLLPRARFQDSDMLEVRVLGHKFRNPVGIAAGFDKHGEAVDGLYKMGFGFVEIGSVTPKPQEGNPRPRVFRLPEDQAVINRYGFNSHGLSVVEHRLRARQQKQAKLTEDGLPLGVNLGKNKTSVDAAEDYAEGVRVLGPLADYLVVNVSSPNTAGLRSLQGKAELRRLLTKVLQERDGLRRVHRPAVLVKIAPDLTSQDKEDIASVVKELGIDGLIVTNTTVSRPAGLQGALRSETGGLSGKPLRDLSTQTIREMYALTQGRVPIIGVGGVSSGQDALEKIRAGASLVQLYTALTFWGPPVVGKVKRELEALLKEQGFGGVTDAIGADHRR

| Compound | pIC50 [1] | pIC50 ([2]; pH 8, 20 °C) | pIC50 [2] | pIC50 [3] |
| --- | --- | --- | --- | --- |
| Cc1cc(Nc2ccccc2C#N)n2ncnc2n1 [2-({5-methyl-[1,2,4]triazolo[1,5-a]pyrimidin-7-yl}amino)benzonitrile] | < 4.00 | < 4.00 |  |  |
| Cc1cc(Nc2c(F)c(F)c(F)c(F)c2F)n2ncnc2n1 [5-methyl-N-(2,3,4,5,6-pentafluorophenyl)-[1,2,4]triazolo[1,5-a]pyrimidin-7-amine] | < 4.00 |  | < 4.00 |  |
| Cc1cc(Nc2ccc(F)c(F)c2F)n2ncnc2n1 [5-methyl-N-(2,3,4-trifluorophenyl)-[1,2,4]triazolo[1,5-a]pyrimidin-7-amine] | < 4.00 |  |  |  |
| Cc1cc(Nc2c(F)c(F)cc(F)c2F)n2ncnc2n1 [5-methyl-N-(2,3,5,6-tetrafluorophenyl)-[1,2,4]triazolo[1,5-a]pyrimidin-7-amine] | < 4.00 | < 4.00 |  |  |
| Cc1cc(Nc2cc(F)c(F)cc2F)n2ncnc2n1 [5-methyl-N-(2,4,5-trifluorophenyl)-[1,2,4]triazolo[1,5-a]pyrimidin-7-amine] | < 4.00 |  |  |  |
| Cc1cc(Nc2c(F)cc(F)cc2F)n2ncnc2n1 [5-methyl-N-(2,4,6-trifluorophenyl)-[1,2,4]triazolo[1,5-a]pyrimidin-7-amine] | < 4.00 | < 4.00 |  |  |
| Cc1cc(Nc2ccccc2C)n2ncnc2n1 [5-methyl-N-(2-methylphenyl)-[1,2,4]triazolo[1,5-a]pyrimidin-7-amine] | < 4.00 | < 4.00 |  |  |
| Cc1cccc(Nc2cc(C)nc3ncnn23)c1 [5-methyl-N-(3-methylphenyl)-[1,2,4]triazolo[1,5-a]pyrimidin-7-amine] | < 4.00 |  |  |  |
| Cc1cc(Nc2ccccc2C(F)(F)F)n2ncnc2n1 [5-methyl-N-[2-(trifluoromethyl)phenyl]-[1,2,4]triazolo[1,5-a]pyrimidin-7-amine] | < 4.00 | < 4.00 |  |  |
| Cc1cc(Nc2ccc3ccccc3c2)n2ncnc2n1 [JMC521864 Compund DSM1] |  |  |  | < 3.70 |
| Cc1cc(Nc2ccccc2)n2ncnc2n1 [JMC521864 Compund DSM12] | < 5.00 | < 3.70 |  | < 3.70 |
| Cc1cc(Nc2cccc(F)c2F)n2ncnc2n1 [N-(2,3-difluorophenyl)-5-methyl-[1,2,4]triazolo[1,5-a]pyrimidin-7-amine] | < 4.00 |  |  |  |
| Cc1cc(Nc2cc(F)ccc2F)n2ncnc2n1 [N-(2,5-difluorophenyl)-5-methyl-[1,2,4]triazolo[1,5-a]pyrimidin-7-amine] | < 4.00 | < 4.30 |  |  |
| Cc1cc(Nc2c(F)cccc2F)n2ncnc2n1 [N-(2,6-difluorophenyl)-5-methyl-[1,2,4]triazolo[1,5-a]pyrimidin-7-amine] | < 4.00 | < 4.00 |  |  |
| Cc1cc(Nc2ccccc2Cl)n2ncnc2n1 [N-(2-chlorophenyl)-5-methyl-[1,2,4]triazolo[1,5-a]pyrimidin-7-amine] | < 4.00 | < 4.00 |  |  |
| Cc1ccc(Nc2cc(C)nc3ncnn23)c(F)c1 [N-(2-fluoro-4-methylphenyl)-5-methyl-[1,2,4]triazolo[1,5-a]pyrimidin-7-amine] | < 4.00 |  |  |  |
| Cc1cc(Nc2ccccc2F)n2ncnc2n1 [N-(2-fluorophenyl)-5-methyl-[1,2,4]triazolo[1,5-a]pyrimidin-7-amine] | < 4.00 | < 4.00 |  |  |
| Cc1cc(Nc2cccc(F)c2)n2ncnc2n1 [N-(3-fluorophenyl)-5-methyl-[1,2,4]triazolo[1,5-a]pyrimidin-7-amine] | < 4.00 |  |  |  |
| Cc1cc(Nc2ccc(Cc3ccccc3)cc2)n2ncnc2n1 [N-(4-benzylphenyl)-5-methyl-[1,2,4]triazolo[1,5-a]pyrimidin-7-amine] | < 4.00 |  |  |  |
| Cc1cc(Nc2ccc(F)cc2)n2ncnc2n1 [N-(4-fluorophenyl)-5-methyl-[1,2,4]triazolo[1,5-a]pyrimidin-7-amine] | < 4.00 |  |  |  |
| COc1ccc(Nc2cc(C)nc3ncnn23)cc1 [N-(4-methoxyphenyl)-5-methyl-[1,2,4]triazolo[1,5-a]pyrimidin-7-amine] | < 4.30 |  |  |  |
| Cc1cc(Nc2ccc3cc4ccccc4cc3c2)n2ncnc2n1 [N-(anthracen-2-yl)-5-methyl-[1,2,4]triazolo[1,5-a]pyrimidin-7-amine] | 5.43 |  |  | < 3.70 |
| Cc1cc(Nc2cc(C(F)(F)F)cc(C(F)(F)F)c2)n2ncnc2n1 [N-[3,5-bis(trifluoromethyl)phenyl]-5-methyl-[1,2,4]triazolo[1,5-a]pyrimidin-7-amine] | < 4.00 |  | < 4.00 |  |
